Reference: EP2435433B1, “(DIHYDRO)IMIDAZOISO[5,1-A]QUINOLINES AS FSH RECEPTOR AGONISTS FOR THE TREATMENT OF FERTILITY DISORDERS” (Merck Sharp & Dohme B.V., priority 2009, dated 2010)

Target: T1, human FSH receptor (Homo sapiens, UniProt P23945)
T1 construct: expressed in transfected cells; host or cells: Chinese Hamster Ovary (CHO) cells, stably transfected, cotransfected with CRE/promotor-firefly luciferase reporter
T1 sequence (P23945 18-695): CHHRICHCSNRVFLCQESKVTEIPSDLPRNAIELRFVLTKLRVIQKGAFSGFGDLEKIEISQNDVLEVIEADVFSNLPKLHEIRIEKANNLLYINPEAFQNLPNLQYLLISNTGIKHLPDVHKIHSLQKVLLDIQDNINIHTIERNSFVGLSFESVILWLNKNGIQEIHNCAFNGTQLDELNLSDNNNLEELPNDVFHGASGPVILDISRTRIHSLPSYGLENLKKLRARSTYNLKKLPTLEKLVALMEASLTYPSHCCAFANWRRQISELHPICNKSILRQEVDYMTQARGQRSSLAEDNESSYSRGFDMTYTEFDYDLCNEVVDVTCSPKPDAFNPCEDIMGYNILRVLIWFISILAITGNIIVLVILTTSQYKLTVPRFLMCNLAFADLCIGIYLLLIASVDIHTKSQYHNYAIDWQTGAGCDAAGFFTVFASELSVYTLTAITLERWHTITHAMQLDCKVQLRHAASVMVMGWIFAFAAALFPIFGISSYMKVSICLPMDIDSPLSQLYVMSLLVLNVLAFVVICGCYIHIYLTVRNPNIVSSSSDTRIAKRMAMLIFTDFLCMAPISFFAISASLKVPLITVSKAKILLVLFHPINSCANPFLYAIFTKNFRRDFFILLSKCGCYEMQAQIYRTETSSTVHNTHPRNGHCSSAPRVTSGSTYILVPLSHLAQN
Experiment: Agonistic activity of compounds at the human FSH receptor expressed in CHO cells, CRE/luciferase reporter (hFSHRago (CHO luc))
Assay type: cell-based
Details: CHO cells stably transfected with the human FSH receptor and CRE/firefly luciferase reporter; 4 hours of incubation; half-maximal stimulation relative to the compound's own maximal effect; read-out: hFSHRago (CHO luc) EC50
From the text: The term EC50 means the concentration of the test compound that elicits half-maximal (50 %) stimulation compared to the compound's maximally attainable effect. The values can be determined e.g. in a cell line transfected with a FSH receptor gene and cotransfected with a cAMP responsive element/promoter directing the expression of a reporter gene. Values can be determined using a software program such as MathIQ (version 2.0, ID Business Solutions Limited).
Agonistic activity of the compounds at the human FSH receptor was determined in Chinese Hamster Ovary (CHO) cells stably transfected with the human FSH receptor and cotransfected with a cAMP responsive element (CRE)/promotor directing the expression of a firefly luciferase reporter gene. Binding of the compounds to the Gs protein-coupled FSH receptor will result in an increase of cAMP, which in turn will induce an increased transactivation of the luciferase reporter. Cells (7,500 cells/well of a 384 well plate) were incubated in Dulbecco' minimal essential F12 modified medium (Invitrogen), supplemented with 1 µg/ml bovine insulin, 5 µg/ml human apo-transferrin, 80 U/ml penicillin G and 80 µg/ml streptomycin with the test compounds (concentration between 0.0316 nM and 10.0 µM) in duplicate in a humidified atmosphere (95%) at 5-7% CO2 and 37°C. The final concentration of DMSO was 1%. After 4 hours of incubation, plates were allowed to adjust to room temperature for 1 hour. Then, Luclite (PerkinElmer) solution was added to the wells and cells were allowed to lyse for at least 1 hour at room temperature. Subsequently, luciferase activity was measured in a luminescence counter. The signal is expressed as counts per second (cps). The EC50 (concentration of the test compound that elicits half-maximal (50 %) luciferase stimulation compared to the compound's maximally attainable effect) and efficacy values (maximal effect of the test compound as percentage of the maximal effect of recombinant human FSH) of the compounds were determined using the software program MathIQ (version 2.0, ID Business Solutions Limited). EC50 data are indicated at the synthesis examples.

Row | EC50 | Structure (SMILES)
1 | 142 nM | COC(=O)NCCOc1cc2c(cc1OC)CCn1c(C(=O)N(C)C(C)(C)C)nc(-c3cccs3)c1-2 [Example 33, {2-[3-(tert-Butyl-methyl-carbamoyl)-8-methoxy-1-thiophen-2-yl-5,6-dihydro-imidazo[5,1-a]isoquinolin-9-yloxy]-ethyl}-carbamic acid methyl ester]
2 | 35 nM | COc1cc2c(cc1NC(=O)C(C)O)-c1c(-c3cccs3)nc(C(=O)N(C)C(C)(C)C)n1CC2 (stereo not shown) [Example 7, 9-(2-Hydroxy-propionylamino)-8-methoxy-1-thiophen-2-yl-5,6-dihydro-imidazo[5,1-a]isoquinoline-3-carboxylic acid tert-butyl-methyl-amide]
3 | 380 nM | COc1cc2c(cc1CC(C)C)-c1c(-c3ncco3)nc(C(=O)N(C)C(C)(C)C)n1CC2 [Example 37f, 9-Isobutyl-8-methoxy-1-oxazol-2-yl-5,6-dihydro-imidazo[5,1-a]isoquinoline-3-carboxylic acid tert-butyl-methyl-amide]
4 | 33 nM | COc1cc2c(cc1-c1cccnc1)-c1c(C(C)(C)C)nc(C(=O)N(C)C(C)(C)C)n1CC2 [Example 44e, 1-tert-Butyl-8-methoxy-9-pyridin-3-yl-5,6-dihydro-imidazo[5,1-a]isoquinoline-3-carboxylic acid tert-butyl-methyl-amide]
5 | 113 nM | COc1cc2c(cc1N1CCOCC1)-c1c(-c3cccs3)nc(C(=O)N(C)C(C)(C)C)n1CC2 [Example 45, 8-Methoxy-9-morpholin-4-yl-1-thiophen-2-yl-5,6-dihydro-imidazo[5,1-a]isoquinoline-3-carboxylic acid tert-butyl-methyl-amide]
6 | 148 nM | COc1cc2c(cc1NC(=O)C(C)C)-c1c(-c3cccs3)nc(C(=O)N(C)C(C)(C)C)n1CC2 [Example 46, 9-Isobutyrylamino-8-methoxy-1-thiophen-2-yl-5,6-dihydro-imidazo[5,1-a]isoquinoline-3-carboxylic acid tert-butyl-methyl-amide]
7 | 7 nM | COc1cc2c(c(F)c1CC(C)C)-c1c(-c3cccs3)nc(C(=O)N(C)C(C)(C)C)n1CC2 [Example 48j, 10-Fluoro-9-isobutyl-8-methoxy-1-thiophen-2-yl-5,6-dihydro-imidazo[5,1-a]isoquinoline-3-carboxylic acid tert-butyl-methyl-amide]
8 | 22 nM | COc1cc2c(cc1C=C(F)F)-c1c(-c3cccs3)nc(C(=O)N(C)C(C)(C)C)n1CC2 [Example 39, 9-(2,2-Difluoro-vinyl)-8-methoxy-1-thiophen-2-yl-5,6-dihydro-imidazo[5,1-a]isoquinoline-3-carboxylic acid tert-butyl-methyl-amide]
9 | 6 nM | COc1cc2c(cc1OC(C)C)-c1c(-c3cncs3)nc(C(=O)N(C)C(C)(C)C)n1CC2 [Example 47e, 9-Isopropoxy-8-methoxy-1-thiazol-5-yl-5,6-dihydro-imidazo[5,1-a]isoquinoline-3-carboxylic acid tert-butyl-methyl-amide]
10 | 3 nM | COc1cc2c(cc1C(=O)Nc1nncs1)-c1c(-c3cccs3)nc(C(=O)N(C)C(C)(C)C)n1CC2 [Example 3e, 8-Methoxy-1-thiophen-2-yl-5,6-dihydro-imidazo[5,1-a]isoquinoline-3,9-dicarboxylic acid 3-(tert-butyl-methyl-amide) 9-[1,3,4]thiadiazol-2-ylamide]
11 | 36 nM | COc1cc2c(cc1Br)-c1c(-c3cccs3)nc(C(=O)N(C)C(C)(C)C)n1CC2 [Example 1j, 9-Bromo-8-methoxy-1-thiophen-2-yl-5,6-dihydro-imidazo[5,1-a]isoquinoline-3-carboxylic acid tert-butyl-methyl-amide]

More lines, now with the values behind:

Row | Structure (SMILES) | EC50
12 | CCOc1ccc2c(c1)CCn1c(C(=O)N(C)C(C)(C)C)nc(-c3cccs3)c1-2 [Example 40c, 8-Ethoxy-1-thiophen-2-yl-5,6-dihydro-imidazo[5,1-a]isoquinoline-3-carboxylic acid tert-butyl-methyl-amide] | 417 nM
13 | COc1cc2c(cc1OC(C)C)-c1c(-c3cccs3)nc(C(=O)N3CCCC3(C)C)n1CC2 [Example 22, (2,2-Dimethyl-pyrrolidin-1-yl)-(9-isopropoxy-8-methoxy-1-thiophen-2-yl-5,6-dihydro-imidazo[5,1-a]isoquinolin-3-yl)-methanone] | 3 nM
14 | CCc1nnc(NC(=O)c2cc3c(cc2OC)CCn2c(C(=O)N(C)C(C)(C)C)nc(-c4cccs4)c2-3)s1 [Example 4, 8-Methoxy-1-thiophen-2-yl-5,6-dihydro-imidazo[5,1-a]isoquinoline-3,9-dicarboxylic acid 3-(tert-butyl-methyl-amide) 9-[(5-ethyl-[1,3,4]thiadiazol-2-yl)-amide]] | 58 nM
15 | COc1cc2ccn3c(C(=O)N(C)C(C)(C)C)nc(-c4cccs4)c3c2cc1-c1cnn(C)c1 [Example 17b, 8-Methoxy-9-(1-methyl-1H-pyrazol-4-yl)-1-thiophen-2-yl-imidazo[5,1-a]isoquinoline-3-carboxylic acid tert-butyl-methyl-amide] | 23 nM
16 | COc1cc2c(cc1OC(C)C)-c1c(-c3cccs3)nc(C(=O)N3CC4CC(CN(C(C)=O)C4)C3)n1CC2 [Example 29c, 1-[7-(9-Isopropoxy-8-methoxy-1-thiophen-2-yl-5,6-dihydro-imidazo[5,1-a]isoquinoline-3-carbonyl)-3,7-diaza-bicyclo[3.3.1]non-3-yl]-ethanone] | 21 nM
17 | COc1cc2c(cc1-c1cccc(C(F)(F)F)c1)-c1c(-c3cccs3)nc(C(=O)N(C)C(C)(C)C)n1CC2 [Example 2e, 8-Methoxy-1-thiophen-2-yl-9-(3-trifluoromethyl-phenyl)-5,6-dihydro-imidazo[5,1-a]isoquinoline-3-carboxylic acid tert-butyl-methyl-amide] | 65 nM
18 | COc1cc2c(cc1Oc1ccccc1)-c1c(-c3cccs3)nc(C(=O)N(C)C(C)(C)C)n1CC2 [Example 42b, 8-Methoxy-9-phenoxy-1-thiophen-2-yl-5,6-dihydro-imidazo[5,1-a]isoquinoline-3-carboxylic acid tert-butyl-methyl-amide] | 128 nM
19 | COc1cccc(Oc2cc3c(cc2OC)CCn2c(C(=O)N(C)C(C)(C)C)nc(-c4cccs4)c2-3)c1 [Example 43b, 8-Methoxy-9-(3-methoxy-phenoxy)-1-thiophen-2-yl-5,6-dihydro-imidazo[5,1-a]isoquinoline-3-carboxylic acid tert-butyl-methyl-amide] | 447 nM
20 | COc1cc2c(cc1OC(C)C)-c1c(-c3cccs3)nc(C(=O)N3CC4CC(C3)CN(C(=O)C3CCC3)C4)n1CC2 [Example 29d, (7-Cyclobutanecarbonyl-3,7-diaza-bicyclo[3.3.1]non-3-yl)-(9-isopropoxy-8-methoxy-1-thiophen-2-yl-5,6-dihydro-imidazo[5,1-a]isoquinolin-3-yl)-methanone] | 5 nM
21 | COc1ccccc1-c1cc2c(cc1OC)CCn1c(C(=O)N(C)C(C)(C)C)nc(-c3cccs3)c1-2 [Example 2q, 8-Methoxy-9-(2-methoxy-phenyl)-1-thiophen-2-yl-5,6-dihydro-imidazo [5,1-a]isoquinoline-3-carboxylic acid tert-butyl-methyl-amide] | 50 nM
22 | CCC1CCCN1C(=O)c1nc(-c2cccs2)c2n1CCc1cc(OC)c(OC(C)C)cc1-2 (stereo not shown) [Example 23, (2-Ethyl-pyrrolidin-1-yl)-(9-isopropoxy-8-methoxy-1-thiophen-2-yl-5,6-dihydro-imidazo[5,1-a]isoquinolin-3-yl)-methanone] | 63 nM
